The source made the active and inactive calls. No rule for the calls is given here.
Assay: PubChem AID 624076
Conditions: Carna kinase panel, IMAP FP / mobility shift, at 10 µM, active compounds read high

- inhibition (ABL(E255K)): -2.21% (inactive)
- inhibition (ABL(T315I)): 3.27% (inactive)
- inhibition (AKT2): 0.832% (inactive)
- inhibition (AKT3): 0% (inactive)
- inhibition (ALK(R1275Q)): -2.15% (inactive)
- inhibition (ARG): -1.99% (inactive)
- inhibition (AXL): 6.91% (inactive)
- inhibition (AurB): 2.87% (inactive)
- inhibition (AurC): 6.65% (inactive)
- inhibition (BMPR1A): -9.7% (inactive)
- inhibition (BRAF(V600E)): 14% (inactive)
- inhibition (BRAF): 53.8%
- inhibition (BRK): -3.52% (inactive)
- inhibition (BRSK1): 10.2% (inactive)
- inhibition (BTK): -3.98% (inactive)
- inhibition (CDC7): -7.36% (inactive)
- inhibition (CDK3): 42.4% (inactive)
- inhibition (CDK5): 51.2%
- inhibition (CDK9): 88.1%
- inhibition (CHK2): 4.54% (inactive)
- inhibition (CK1e): 10.4% (inactive)
- inhibition (CK1g1): 85.8%
- inhibition (CK2a2/b): 48.7% (inactive)
- inhibition (CK1d): 23.2% (inactive)
- inhibition (CLK1): 70.5%
- inhibition (CLK2): 47.6% (inactive)
- inhibition (COT): -1.49% (inactive)
- inhibition (CRIK): 1.36% (inactive)
- inhibition (CTK): -2.12% (inactive)
- inhibition (CaMK2b): 0.457% (inactive)
- inhibition (CaMK4): 6.27% (inactive)
- inhibition (CaMK1d): 2.64% (inactive)
- inhibition (DAPK1): 0.121% (inactive)
- inhibition (DCAMKL2): 4.09% (inactive)
- inhibition (DLK): -12.2% (inactive)
- inhibition (DYRK1B): 20.8% (inactive)
- inhibition (DYRK2): 17.2% (inactive)
- inhibition (EGFR(L861Q)): 1.1% (inactive)
- inhibition (EML4-ALK): -2.55% (inactive)
- inhibition (EPHA3): -5.65% (inactive)
- inhibition (EPHA5): -4.24% (inactive)
- inhibition (EPHA8): -7.66% (inactive)
- inhibition (EPHB1): 0.223% (inactive)
- inhibition (EPHB4): -0.865% (inactive)
- inhibition (FGFR1): 13.1% (inactive)
- inhibition (FGFR3(K650E)): 12.5% (inactive)
- inhibition (FGFR3(K650M)): 11.8% (inactive)
- inhibition (FGFR4(N535K)): 3.65% (inactive)
- inhibition (FGFR4(V550L)): 7.1% (inactive)
- inhibition (FGFR4): 1.13% (inactive)
- inhibition (FLT4): 40.4% (inactive)
- inhibition (FMS): 9.78% (inactive)
- inhibition (GSK3a): 99.9%
- inhibition (HER4): -8.68% (inactive)
- inhibition (HIPK1): 15.1% (inactive)
- inhibition (HIPK3): 11% (inactive)
- inhibition (Haspin): 9.76% (inactive)
- inhibition (IGF1R): 0.373% (inactive)
- inhibition (IKKb): 7.11% (inactive)
- inhibition (IRAK4): -0.123% (inactive)
- inhibition (IRR): 2.61% (inactive)
- inhibition (JAK2): 5.28% (inactive)
- inhibition (JAK3): 18.1% (inactive)
- inhibition (JNK1): 11.5% (inactive)
- inhibition (JNK2): 18.8% (inactive)
- inhibition (JNK3): 16.9% (inactive)
- inhibition (KIT(T670I)): 2.37% (inactive)
- inhibition (KIT(V560G)): 8.71% (inactive)
- inhibition (KIT): 5.43% (inactive)
- inhibition (LATS2): 9.73% (inactive)
- inhibition (LKB1): 16.6% (inactive)
- inhibition (LOK): 4.96% (inactive)
- inhibition (LTK): -0.743% (inactive)
- inhibition (LYNa): 0.071% (inactive)
- inhibition (MAP2K5): -7.9% (inactive)
- inhibition (MAP3K1): 8.06% (inactive)
- inhibition (MAP3K3): -21.6% (inactive)
- inhibition (MAP4K2): 12.9% (inactive)
- inhibition (MARK2): 13.3% (inactive)
- inhibition (MARK4): 15.4% (inactive)
- inhibition (MELK): 53.5%
- inhibition (MER): 3.47% (inactive)
- inhibition (MGC42105): 6.7% (inactive)
- inhibition (MINK): 4.57% (inactive)
- inhibition (MLK1): 51.4%
- inhibition (MLK2): 0.179% (inactive)
- inhibition (MOS): 5.27% (inactive)
- inhibition (MSK1): 7.16% (inactive)
- inhibition (MST2): 5.83% (inactive)
- inhibition (MST4): 8.12% (inactive)
- inhibition (NDR1): 2.42% (inactive)
- inhibition (NEK1): 15.9% (inactive)
- inhibition (NEK2): 8.33% (inactive)
- inhibition (NEK6): 2.28% (inactive)
- inhibition (NEK7): -3.45% (inactive)
- inhibition (PAK3): 14.2% (inactive)
- inhibition (PAK4): -9.87% (inactive)
- inhibition (PAK5): 7.25% (inactive)
- inhibition (PASK): 8.83% (inactive)
- inhibition (PBK): 3.01% (inactive)
- inhibition (PDGFRa(V561D)): 27% (inactive)
- inhibition (PEK): 23.7% (inactive)
- inhibition (PGK): -2.42% (inactive)
- inhibition (PHKG1): 6.01% (inactive)
- inhibition (PIM3): -2.3% (inactive)
- inhibition (PKACg): 2.06% (inactive)
- inhibition (PKCb2): 10.5% (inactive)
- inhibition (PKCd): 15.8% (inactive)
- inhibition (PKCg): 8.43% (inactive)
- inhibition (PKD1): 24.8% (inactive)
- inhibition (PKD2): 19.5% (inactive)
- inhibition (PKD3): 40.8% (inactive)
- inhibition (PKN1): 14.8% (inactive)
- inhibition (PLK1): 59.2%
- inhibition (PLK4): -13.5% (inactive)
- inhibition (PRKX): 3.31% (inactive)
- inhibition (RET(S891A)): 32.1% (inactive)
- inhibition (RET(Y791F)): 12.8% (inactive)
- inhibition (ROCK1): 0.774% (inactive)
- inhibition (ROCK2): 1.96% (inactive)
- inhibition (ROS): 11.2% (inactive)
- inhibition (RSK1): 19.3% (inactive)
- inhibition (RSK2): 19.9% (inactive)
- inhibition (RSK4): 30.6% (inactive)
- inhibition (SGK3): 0.522% (inactive)
- inhibition (SIK): 2.55% (inactive)
- inhibition (SLK): 43.3% (inactive)
- inhibition (SRC): 2.22% (inactive)
- inhibition (SRM): -1.3% (inactive)
- inhibition (SRPK1): 17.3% (inactive)
- inhibition (SYK): 1.08% (inactive)
- inhibition (TAK1-TAB1): 34.1% (inactive)
- inhibition (TIE2): 4.06% (inactive)
- inhibition (TNK1): 27.1% (inactive)
- inhibition (TRKA): 9.49% (inactive)
- inhibition (TSSK3): -3.5% (inactive)
- inhibition (TTK): -10.8% (inactive)
- inhibition (TYK2): -0.177% (inactive)
- inhibition (WNK2): 3.23% (inactive)
- inhibition (p38d): 2.62% (inactive)
Structure (SMILES): Cc1cnc(-c2cnc(NCCNc3ccc(C#N)cn3)nc2-c2ccc(Cl)cc2Cl)[nH]1

Reference: PubChem BioAssay AID624076 (Broad Institute, 2012)
